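Method: 48-hour compound exposure of cells in 96-well plates, five concentrations, linear interpolation of endpoints. At the GI50, growth is halved.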 The source made the active and inactive calls. Rule as the data show it: active = GI50 up to about 1.1 µM and inactive = higher.
Assays:
Assay in all cases: NCI anticancer screen, dose series, 48 h
[1] = tested on: KM12
[2] = tested on: OVCAR-8
[3] = tested on: SK-MEL-2
[4] = tested on: HCC 2998
[5] = tested on: M19-MEL
[6] = tested on: NCI-H460
[7] = tested on: IGROV-1
[8] = tested on: CCRF-CEM
[9] = tested on: HL-60
[10] = tested on: HOP-62
[11] = tested on: 786-0
[12] = tested on: A498
[13] = tested on: SK-MEL-28
[14] = tested on: HCT-15
[15] = tested on: COLO 205

SMILES	GI50 [1]	GI50 [2]	GI50 [3]	GI50 [4]	GI50 [5]	GI50 [6]	GI50 [7]	GI50 [8]	GI50 [9]	GI50 [10]	GI50 [11]	GI50 [12]	GI50 [13]	GI50 [14]	GI50 [15]
CCCCC1CC(c2ccc(Cl)cc2)=NO1 (stereo not given)	> 100 µM (inactive)	> 100 µM (inactive)	> 100 µM (inactive)	> 100 µM (inactive)	> 100 µM (inactive)	> 100 µM (inactive)	> 100 µM (inactive)	> 100 µM (inactive)	85.3 µM (inactive)	> 100 µM (inactive)	> 100 µM (inactive)	> 100 µM (inactive)	> 100 µM (inactive)	> 100 µM	> 100 µM (inactive)
COc1cc(OC(=O)c2c(O)cc(O)c(O)c2C)cc(C)c1C(=O)Oc1cc(C)c(C(=O)O)c(O)c1	> 100 µM (inactive)	> 100 µM (inactive)	> 100 µM (inactive)	> 100 µM (inactive)	> 100 µM (inactive)	> 100 µM (inactive)	> 100 µM (inactive)	> 100 µM (inactive)	> 100 µM (inactive)	> 100 µM (inactive)	> 100 µM (inactive)	> 100 µM (inactive)	> 100 µM (inactive)	> 100 µM	> 100 µM (inactive)
COC(=O)C1Cc2c([nH]c3ccccc23)C(c2ccccc2O)N1Cc1ccccc1 (stereo not given)	> 31.6 µM (inactive)	29.4 µM (inactive)	21.8 µM (inactive)	> 31.6 µM (inactive)	40.6 µM (inactive)	30.8 µM (inactive)	25.5 µM (inactive)	> 46.5 µM (inactive)	> 46.5 µM (inactive)	41.2 µM (inactive)	20.7 µM (inactive)	28.9 µM (inactive)	> 31.6 µM (inactive)	> 46.5 µM	41.7 µM (inactive)
CCC[C@H]1O[C@@H]2CC(=O)O[C@@H]2C2=C1C(=O)C=CC2=O	23.6 µM (inactive)	> 47.4 µM (inactive)	20.3 µM (inactive)	> 43.1 µM (inactive)	20.3 µM (inactive)	> 100 µM (inactive)	18 µM (inactive)	3.92 µM (inactive)	5.7 µM (inactive)	> 54.1 µM (inactive)	16.3 µM (inactive)	34.2 µM (inactive)	17.2 µM (inactive)	15.3 µM	3.38 µM (inactive)
COCCN1C2=CCCCC2=Nc2c(N)nc(N)nc21	> 100 µM (inactive)	> 100 µM (inactive)	> 100 µM (inactive)	> 100 µM (inactive)	24.3 µM (inactive)	> 100 µM (inactive)	> 100 µM (inactive)	> 100 µM (inactive)	> 100 µM (inactive)	> 100 µM (inactive)	> 100 µM (inactive)	> 100 µM (inactive)	> 100 µM (inactive)	> 100 µM	> 100 µM (inactive)
O=C(c1ccc(Cl)cc1Cl)N(/N=C/C=C/c1ccccc1)c1nnc(-c2ccccc2)c(-c2ccccc2)n1	> 100 µM (inactive)	> 100 µM (inactive)	> 100 µM (inactive)	> 100 µM (inactive)	> 100 µM (inactive)	> 100 µM (inactive)	> 100 µM (inactive)	> 100 µM (inactive)	> 100 µM (inactive)	> 100 µM (inactive)	> 100 µM (inactive)	> 100 µM (inactive)	> 100 µM (inactive)	> 100 µM	> 100 µM (inactive)
COc1ccc(OC)c2c1C(=O)C1CC1(Br)C2=O (stereo not given)	> 100 µM (inactive)	> 100 µM (inactive)	> 100 µM (inactive)	> 100 µM (inactive)	> 100 µM (inactive)	> 100 µM (inactive)	> 100 µM (inactive)	> 100 µM (inactive)	> 100 µM (inactive)	> 100 µM (inactive)	> 100 µM (inactive)	> 100 µM (inactive)	> 100 µM (inactive)	> 100 µM	> 100 µM (inactive)
